Drawing on US8637525B2, “Compounds for the reduction of beta-amyloid production” (Bristol-Myers Squibb Company, priority 2009, dated 2014), this text covers IC50 for 27 compounds.

Counter-ions that a name gives are not always drawn. Some results are limits rather than exact numbers.

The first experiment concerns Aβ1-42 production. Kind of experiment: Cellular assay for inhibition of Aβ1-42 production (H4 APP751 SWE clone 8.20). It is filed as cell-based. The settings on record: 19 h, H4 APP751 SWE clone 8.20 cells, 19 h incubation; class symbols; read-out: Activity Rating (Aβ42 cellular IC50). A digest of the protocol: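 H4 cells stably expressing Swedish-mutant APP751 incubated with compound 19 h at 37 °C, 5% CO2. Secreted Aβ42 detected by HTRF with Aβ42 neoepitope antibody 565 (0.8 ng/well) and N-terminal 26D6 (75 ng/well), overnight at 4 °C. IC50 obtained by curve fitting.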
One may read the IC50 as the concentration that gives 50% inhibition. Turning to `CNc1nc(Nc2ccc(-n3cnc(Cl)c3)c(OC)c2)nc2c1COCC2c1ccc(F)c(F)c1` (racemic) [Example 115, N2-(4-(4-chloro-1H-imidazol-1-yl)-3-methoxyphenyl)-8-(3,4-difluorophenyl)-N4-methyl-7,8-dihydro-5H-pyrano[4,3-d]pyrimidine-2,4-diamine, TFA], the concentration for half-maximal inhibition (IC50) was in the range of 1.5 to 9.9 nM.
As for `COc1cc(Nc2nc3c(c(N4CC[C@H](F)C4)n2)CCC3c2ccc(F)cc2)ccc1-n1cnc(Cl)c1` (single isomer, unassigned) [Example 36], the IC50 lay in the range of 10 to 100 nM.
As for `CCNc1nc(Nc2ccc(-n3ncnc3C)c(F)c2)nc2c1CN(CC(F)F)CC2c1ccccc1` (stereo not drawn) [Example 194, 6-(2,2-difluoroethyl)-N4-ethyl-N2-(3-fluoro-4-(5-methyl-1H-1,2,4-triazol-1-yl)phenyl)-8-phenyl-5,6,7,8-tetrahydropyrido[4,3-d]pyrimidine-2,4-diamine], the IC50 fell in the range of 10 to 100 nM.
`CCNc1nc(Nc2ccc(-n3cnc(Cl)c3)c(OC)c2)nc2c1CCOC2c1ccc(F)cc1` (stereo not drawn) [Example 88B, N2-(4-(4-chloro-1H-imidazol-1-yl)-3-methoxyphenyl)-N4-ethyl-8-(4-fluorophenyl)-6,8-dihydro-5H-pyrano[3,4-d]pyrimidine-2,4-diamine]: the IC50 was in the range of 10 to 100 nM.
For the compound `CNc1nc(Nc2ccc(-n3cnc(Cl)c3)c(OC)c2)nc2c1COCC2c1ccc(C(F)(F)F)cc1` (racemic) [Example 120, N2-(4-(4-chloro-1H-imidazol-1-yl)-3-methoxyphenyl)-N4-methyl-8-(4-(trifluoromethyl)phenyl)-7,8-dihydro-5H-pyrano[4,3-d]pyrimidine-2,4-diamine, TFA], the IC50 was 10 to 100 nM.
In the case of `CNc1nc(Nc2ccc(C#N)cc2)nc2c1CN(S(C)(=O)=O)CC2c1ccc(F)cc1` (stereo not drawn) [Example 207, 4-(8-(4-fluorophenyl)-4-(methylamino)-6-(methylsulfonyl)-5,6,7,8-tetrahydropyrido[4,3-d]pyrimidin-2-ylamino)benzonitrile], the concentration for half-maximal inhibition (IC50) lay within 100 to 1000 nM.
Same read-out and setting: the same measure for `COc1cc(Nc2nc3c(c(N4CCN(C)CC4)n2)CCC3c2ccc(F)cc2)ccc1-n1cnc(Cl)c1` (single isomer, unassigned) [Example 30A, N-(4-(4-chloro-1H-imidazol-1-yl)-3-methoxyphenyl)-7-(4-fluorophenyl)-4-(4-methylpiperazin-1-yl)-6,7-dihydro-5H-cyclopenta[d]pyrimidin-2-amine]: 10 to 100 nM; for `CNc1nc(Nc2ccc(-n3cnc(Cl)c3)c(OC)c2)nc2c1CCC2c1ccc(F)cc1F` (single isomer, unassigned) [Example 109A, N^2-(4-(4-Chloro-1H-imidazol-1-yl)-3-methoxyphenyl)-7-(2,4-difluorophenyl)-N^4-methyl-6,7-dihydro-5H-cyclopenta[d]pyrimidine-2,4-diamine]: 1.5 to 9.9 nM.
On to `COc1cc(Nc2nc3c(c(N(C)C)n2)CCC3c2ccc(OC(F)(F)F)cc2)ccc1-n1cnc(Cl)c1` (single isomer, unassigned) [Example 100B, N^2-(4-(4-chloro-1H-imidazol-1-yl)-3-methoxyphenyl)-N^4,N^4-dimethyl-7-(4-(trifluoromethoxy)phenyl)-6,7-dihydro-5H-cyclopenta[d]pyrimidine-2,4-diamine], for which the IC50 is 10 to 100 nM.
On the same count and under the same terms, under `CNc1nc(Nc2ccc3[nH]ccc3c2)nc2c1CCC2c1ccccc1` (stereo not drawn) [Example 251, N2-(1H-indol-5-yl)-N4-methyl-7-phenyl-6,7-dihydro-5H-cyclopenta[d]pyrimidine-2,4-diamine] stands above 1000 nM; under `CNc1nc(Nc2ccc3occc3c2)nc2c1CCC2c1ccccc1` (stereo not drawn) [Example 250, N2-(benzofuran-5-yl)-N4-methyl-7-phenyl-6,7-dihydro-5H-cyclopenta[d]pyrimidine-2,4-diamine], above 1000 nM; under `CCNc1nc(Nc2ccc(-n3cnc(C)n3)c(OC)c2)nc2c1COCC2c1ccc(F)cc1` (racemic) [Example 55, N4-ethyl-8-(4-fluorophenyl)-N2-(3-methoxy-4-(3-methyl-1H-1,2,4-triazol-1-yl)phenyl)-7,8-dihydro-5H-pyrano[4,3-d]pyrimidine-2,4-diamine], 10 to 100 nM.
With `CCNc1nc(Nc2ccc(-n3cnc(Cl)c3)c(OC)c2)nc2c1CN(C(=O)CN(C)C)CC2c1ccccc1` (stereo not drawn) [Example 135, 1-(2-(4-(4-chloro-1H-imidazol-1-yl)-3-methoxyphenylamino)-4-(ethylamino)-8-phenyl-7,8-dihydropyrido[4,3-d]pyrimidin-6(5H)-yl)-2-(dimethylamino)ethanone], the half-inhibitory concentration (IC50) is 10 to 100 nM.
Consider `CCNc1nc(Nc2ccc(-n3cnc(Cl)c3)c(OC)c2)nc2c1COCC2c1ccc(F)cc1` (racemic) [Example 56, N2-(4-(4-chloro-1H-imidazol-1-yl)-3-methoxyphenyl)-N4-ethyl-8-(4-fluorophenyl)-7,8-dihydro-5H-pyrano[4,3-d]pyrimidine-2,4-diamine], for which the IC50 was 10 to 100 nM.
With `CNc1nc(Nc2ccc(-n3cnc(C)n3)c(OC)c2)nc2c1CC[C@H]2c1c(F)cc(F)cc1F` (single isomer, unassigned) [Example 270A], the IC50 fell in the range of 1.5 to 9.9 nM.
In the case of `COc1cc(Nc2nc3c(c(N4CCC(F)C4)n2)COCC3c2ccc(F)cc2)ccc1-n1cnc(Cl)c1` (stereo in doubt) [Example 58A, N-(4-(4-chloro-1H-imidazol-1-yl)-3-methoxyphenyl)-8-(4-fluorophenyl)-4-((S)-3-fluoropyrrolidin-1-yl)-7,8-dihydro-5H-pyrano[4,3-d]pyrimidin-2-amine], the half-maximal inhibitory concentration (IC50) lay within 1.5 to 9.9 nM.

The experiment is the same for the next values; noted with them: 19 h, H4 APP751 SWE clone 8.20 cells, 19 h incubation; read-out: Activity Rating (Aβ42 cellular IC50), numeric value.
With `COc1cc(Nc2nc3c(c(N4CCN(C)CC4)n2)CCC3c2ccc(F)cc2)ccc1-n1cnc(Cl)c1` (single isomer, unassigned) [Example 30B, N-(4-(4-chloro-1H-imidazol-1-yl)-3-methoxyphenyl)-7-(4-fluorophenyl)-4-(4-methylpiperazin-1-yl)-6,7-dihydro-5H-cyclopenta[d]pyrimidin-2-amine], the IC50 came out at 230 nM.
In the case of `CCNc1nc(Nc2ccc(-n3ncnc3C)c(F)c2)nc2c1COCC2c1ccc(C(F)(F)F)cc1` (stereo not drawn) [Example 119A, N4-ethyl-N2-(3-fluoro-4-(5-methyl-1H-1,2,4-triazol-1-yl)phenyl)-8-(4-(trifluoromethyl)phenyl)-7,8-dihydro-5H-pyrano[4,3-d]pyrimidine-2,4-diamine], the IC50 turned out to be 7.4 nM.
Regarding `Cc1ncnn1-c1ccc(Nc2nc3c(c(N(C)C)n2)COCC3c2ccc(Cl)cc2)cc1F` (single isomer, unassigned) [Example 67B, 8-(4-chlorophenyl)-N^2-(3-fluoro-4-(5-methyl-1H-1,2,4-triazol-1-yl)phenyl)-N^4,N^4-dimethyl-7,8-dihydro-5H-pyrano[4,3-d]pyrimidine-2,4-diamine], the half-maximal inhibitory concentration (IC50) was found to be 540 nM.
On the same count and under the same terms, the same measure for `COc1cc(Nc2nc3c(c(N(C)S(C)(=O)=O)n2)CCC3c2ccccc2)ccc1-n1cnc(Cl)c1` (stereo not drawn) [Example 210, N-(2-(4-(4-chloro-1H-imidazol-1-yl)-3-methoxyphenylamino)-7-phenyl-6,7-dihydro-5H-cyclopenta[d]pyrimidin-4-yl)-N-methylmethanesulfonamide]: 61 nM.

Staying with this experiment, now noted: H4 APP751 SWE clone 8.20 cells, 19 h incubation; class symbols; TFA; read-out: Activity Rating (Aβ42 cellular IC50).
As to `COc1cc(Nc2nc(N[C@H](C)C3CC3)c3c(n2)C(c2ccc(F)cc2)CC3)ccc1-n1cnc(Cl)c1` (mixture of isomers) [Example 49, N2-(4-(4-chloro-1H-imidazol-1-yl)-3-methoxyphenyl)-N4-((R)-1-cyclopropylethyl)-7-(4-fluorophenyl)-6,7-dihydro-5H-cyclopenta[d]pyrimidine-2,4-diamine, 2 TFA], the IC50 is 1.5 to 9.9 nM.

Staying with this experiment, now noted: H4 APP751 SWE clone 8.20 cells, 19 h incubation; class symbols; read-out: Activity Rating (Aβ42 cellular IC50).
For the compound `CCNc1nc(Nc2ccc(-n3cnc(Cl)c3)c(OC)c2)nc2c1CCC2(C)c1ccccc1` (stereo not drawn) [Example 110A, N2-(4-(4-chloro-1H-imidazol-1-yl)-3-methoxyphenyl)-N4-ethyl-7-methyl-7-phenyl-6,7-dihydro-5H-cyclopenta[d]pyrimidine-2,4-diamine], the half-maximal inhibitory concentration (IC50) fell in the range of 1.5 to 9.9 nM.
For `CNc1nc(Nc2ccc(-n3cnc(C)n3)c(OC)c2)nc2c1COCC2c1ccc(F)cc1` (stereo not drawn) [Example 54A, 8-(4-fluorophenyl)-N2-(3-methoxy-4-(3-methyl-1H-1,2,4-triazol-1-yl)phenyl)-N4-methyl-7,8-dihydro-5H-pyrano[4,3-d]pyrimidine-2,4-diamine], the IC50 was 10 to 100 nM.
As to `COc1cc(Nc2nc(N[C@H](C)C3CC3)c3c(n2)C(c2ccc(C(F)(F)F)cc2)COC3)ccc1-n1cnc(Cl)c1` (stereo partly drawn) [Example 117A, N2-(4-(4-chloro-1H-imidazol-1-yl)-3-methoxyphenyl)-N4-((R)-1-cyclopropylethyl)-8-(4-(trifluoromethyl)phenyl)-7,8-dihydro-5H-pyrano[4,3-d]pyrimidine-2,4-diamine], the concentration for half-maximal inhibition (IC50) was 10 to 100 nM.
`COc1cc(Nc2nc3c(c(N4CCCC4C)n2)CCC3c2ccc(F)cc2)ccc1-n1cnc(Cl)c1` (single isomer, unassigned) [Example 19, N-(4-(4-chloro-1H-imidazol-1-yl)-3-methoxyphenyl)-7-(4-fluorophenyl)-4-(2-methylpyrrolidin-1-yl)-6,7-dihydro-5H-cyclopenta[d]pyrimidin-2-amine]: the IC50 lay in the range of 10 to 100 nM.
For the compound `COc1cc(Nc2nc3c(c(N4CC(F)C4)n2)CCC3c2ccccc2)ccc1-n1cnc(Cl)c1` (stereo not drawn) [Example 182, N-(4-(4-chloro-1H-imidazol-1-yl)-3-methoxyphenyl)-4-(3-fluoroazetidin-1-yl)-7-phenyl-6,7-dihydro-5H-cyclopenta[d]pyrimidin-2-amine], the 50% inhibitory concentration (IC50) lay within 10 to 100 nM.
In the case of `CCNc1nc(Nc2ccc(-n3cnc(Cl)c3)c(OC)c2)nc2c1CCC2c1ccc(OC(F)(F)F)cc1` (single isomer, unassigned) [Example 98A, N^2-(4-(4-Chloro-1H-imidazol-1-yl)-3-methoxyphenyl)-N^4-ethyl-7-(4-(trifluoromethoxy)phenyl)-6,7-dihydro-5H-cyclopenta[d]pyrimidine-2,4-diamine], the 50% inhibitory concentration (IC50) is 1.5 to 9.9 nM.
